The values below come from US20060210611A1, “Fat soluble vitamin feed supplements and processes for delivering same” (priority 2003, published 2006).

The conditions of series [1]: per 1 mg; cited from earlier work.
Series [2] is described as follows: Dietary vitamin E regimens and final longissimus muscle α-tocopherol (AT) concentration (Arnold). It counts as in vivo, cattle. How it is done:
For example, Arnold compared several dietary vitamin E regimens and their resultant final tissue concentration of α-tocopherol (AT). Comparing the results to baseline control and assuming AT accretion in longissimus muscle is linear over time, approximate rates of AT accretion are calculated for various E regimens. Because AT rise is likely logarithmic (See e.g., Arnold et al., J. Anim. Sci. 71:105-118. (1993)), these calculated rates are conservative estimates, especially for feeding periods exceeding 150 days.

A short description of series [3]: Calculated average AT accretion rates in longissimus muscle (Arnold and McClure combined). It counts as in vivo, cattle. The source says:
Combining the results from Arnold and McClure, and bearing in mind that various muscles accrete AT at different rates (sirloin>inside round>RCDM>strip loin; Roeber et al., Effects of Three Levels of α-Tocopherol Acetate Supplementation to Feedlot Cattle on Performance of Beef Cuts (2001)), average accretion rates for AT in longissimus muscle can be calculated: […]

For series [4] the following is noted: cited from earlier work.
Series [5] can be described thus: AT accretion in RCDM neck muscle at 1,000 IU vitamin E/hd/day (McClure). It counts as in vivo, Bos indicus crosses. The settings on record: 1000 IU/hd/day (McClure), 25-125 days fed. The method, then:
McClure (FIG. 1) tested the rate of accretion in Bos indicus crosses when fed 1,000 IU of Vitamin E/hd/day. Groups of cattle were slaughtered at 25-day intervals, and neck muscles obtained for tissue AT analysis. Because the controls were already receiving 200 IU E/day, initial AT concentrations were above 3.5. However, RCDM (rectus capitis dorsalis major) AT concentration rose in a logarithmic fashion, eventually reaching a plateau of 9.3 μg/gm. (McClure et al., Determination of Appropriate Vitamin E Supplementation Levels and Administration Times to Ensure Adequate Muscle Tissue Alpha-Tocopherol Concentrations in Cattle Destined for the Nolan Ryan Tender-Aged Beef (NRTAAB) Program, Animal Sciences Report (2002)).

For series [6] the following is noted: cited from earlier work. This is another data set of the same source.
Setting [7] is: 360 IU/hd/day, 211-252 days fed.
Where [8] appears, read: 1280 IU/hd/day, 211-252 days fed.
The mark [9] stands for this setting: 2080 IU/hd/day, 196-266 days fed.
Setting [10] is: 3520 IU/hd/day, 196-266 days fed.

Read-outs that look alike come from different tables or passages of the source.

Take `CC(=O)Oc1c(C)c(C)c2c(c1C)CC[C@@](C)(CCC[C@H](C)CCC[C@H](C)CCCC(C)C)O2` [RRR-α-tocopherol acetate]: in series [1], the specific activity was 1.36 IU per milligram.

For the compound `Cc1c(C)c2c(c(C)c1O)CCC(C)(CCCC(C)CCCC(C)CCCC(C)C)O2` (racemic) [all-rac-α-tocopherol], the specific activity in series [1] is reported as 1.10 IU per milligram.

On to `CC(=O)Oc1c(C)c(C)c2c(c1C)CCC(C)(CCCC(C)CCCC(C)CCCC(C)C)O2` (racemic) [all-rac-α-tocopherol acetate], for which the specific activity in series [1] is on record as 1.00 IU per milligram.

Take `Cc1c(C)c2c(c(C)c1O)CC[C@@](C)(CCC[C@H](C)CCC[C@H](C)CCCC(C)C)O2` [RRR-α-tocopherol]: in series [1], the specific activity is reported as 1.49 IU per milligram.

Regarding Vitamin E, the “Calculated Rise in AT per 50 days” value is on record as 0.52 μg/gm/50 days in series [2] (300 IU/hd/day, 231-309 days fed, vs control baseline, linear accretion assumed); 0.64 μg/gm/50 days in series [2] (setting [7]); 3.58 μg/gm/50 days in series [2] (1140 IU/hd/day, 67 days fed); 2.76 μg/gm/50 days in series [2] (1200 IU/hd/day, 38 days fed); 1.28 μg/gm/50 days in series [2] (setting [8]); 1.38 μg/gm/50 days in series [2] (setting [9]). The figures for the “Calculated Rise in AT per 50 days” value in series [2] (setting [10]) and in series [5] were 1.58 μg/gm/50 days and 2.6 μg/gm/50 days, respectively. Moreover, the “AT Accretion” value in series [3] (Vitamin E dose 500 IU/hd/day) is 0.75-1.0 μg AT/gm wet muscle/50 days; in series [3] (Vitamin E dose 1000+ IU/hd/day) it was 1.5-3.6 μg AT/gm wet muscle/50 days; in series [3] (Vitamin E dose less than 500 IU/hd/day) it was 0.5-0.6 μg AT/gm wet muscle/50 days. Moreover, the “RCDM AT concentration plateau” value in series [4] (1,000 IU of Vitamin E/hd/day, slaughter at 25-day intervals) was 9.3 μg/gm. Besides, in series [4] (1000 IU/hd/day (McClure), 25-125 days fed), the “Final AT concentration (in RCDM muscle)” value is 9.3 μg/gm wet muscle. In addition, the “initial AT concentrations” value in series [4] (controls already receiving 200 IU E/day) is recorded as “above 3.5”. The “Final Longissimus AT concentration” value in series [6] (300 IU/hd/day, 231-309 days fed) is recorded as 3.8 μg/gm wet muscle; in series [6] (setting [7]), 4.1 μg/gm wet muscle; in series [6] (1140 IU/hd/day, 67 days fed), 6.2 μg/gm wet muscle; in series [6] (1200 IU/hd/day, 38 days fed), 3.5 μg/gm wet muscle; in series [6] (setting [8]) it was 6.8 μg/gm wet muscle; in series [6] (setting [9]) it was 6.8 μg/gm wet muscle. Also, the “Final Longissimus AT concentration” value in series [6] (setting [10]) was 7.6 μg/gm wet muscle.
